In patent EP0563386A1, “ANTICANCER COMPOSITION AND COMPOUND” (NIPPON SHINYAKU COMPANY, LIMITED, priority 1990, dated 1992):
Counter-ions that a name gives are not always drawn.

Assays:
cancer patients [1] = assay: Clinical use with radiotherapy and chemotherapy, 45 cancer cases (Test Example 7); type: in vivo
Experimental: Predetermined radiotherapy [each proven focus was irradiated with cobalt 60 gamma rays, about 28 Gy, in simply divided doses at intervals of several days and oily bleomycin was administered intramuscularly in a dose range of 0.5-3 mg/day (a total of not more than 50 mg) 30 minutes before and 30 minutes after each irradiation] was given to the following cancer patients and concomitantly the following prescription was given orally.

Meth A fibrosarcoma = Meth A fibrosarcoma tumor volume in mice (Test Example 2); type: in vivo, BALB/c mice
Experimental: • (1) The homologus tumor Meth A fibrosarcoma subcultured (ascites type) in BALB/c mice, 5 x 10^5 cells, was transplanted subcutaneously at the flank of 6-week-old male BALB/c mice. Mice having a tumor volume of 70-100 mm³ were selected and divided into groups of 9. Oral single daily administration of the test compound was started and the body weight and tumor volume were serially determined. The volume was determined using the same calculation formula as shown in Test Example 1. The compound of the invention irsogladine maleate, 10 mg/kg, suspended in 0.5% methylcellulose maleate and 5-fluorouracil, 15 mg/kg, dissolved in 0.5% methylcellulose solution were respectively administered orally. The control group received 0.5% methylcellulose solution orally. […] The effect of the com pound of this invention as an anticancer agent is, thus, clear. • (2) As in the above test, mice having a tumor volume of 160-180 mm³ were selected and subjected to the same test as above. The compound of this invention irsogladine maleate, 10 mg/kg, 5-flurorouracil, 30 mg/kg, or as a combination therapy, irsogladine maleate, 10 mg/kg, plus 5-fluorouracil, 30 mg/kg, were administered orally. The control group received the same control material as in the above test orally. […] The anticancer adjuvant activity of the compound of this invention to 5-FU is clear.
The open circle stands for control, the open triangle for 5-FU and the closed circle for the compound of the invention. The tumor volume (mm³) is plotted on the vertical axis and the number of days after drug administration on the horizontal axis.
The open circle stands for control, the open triangle for F-5U, the closed circle for the compound of the invention, the open square for the combination therapy. The tumor volume (mm³) is plotted on the vertical axis and the number of days after drug administration on the horizontal axis.

cancer patients [2] = assay: Clinical use with radiotherapy and chemotherapy, 39 case reports (Test Example 8); type: in vivo
Experimental: Predetermined radiotherapy [each proven focus was irradiated with cobalt 60 gamma rays, […], in simply divided doses at intervals of several days and oily bleomycin was administered intramuscularly in a dose range of 0.5-3 mg/day (a total of not more than 50 mg) 30 minutes before and 30 minutes after each irradiation] was given to the following cancer patients and concomitantly the following prescription was given orally.
Following Test Example 7, the clinical effect was investigated. Radiotherapy, chemotherapy and administration of irsogladine maleate were performed in the same manner as in Test Example 7.

[3] = tested on: WiDr (human colon cancer); assay: Tumor growth inhibition, WiDr implant in nude mice (Test Example 1); type: in vivo, BALB/c nude mice; conditions: implant volume on day 18 after transplantation divided by volume at transplantation; irsogladine maleate 10 mg/kg orally once daily from day 14; cyclophosphamide 150 mg/kg intraperitoneally once on day 14; groups of 10
Experimental: WiDr (human colon cancer) cells subcultured in BALB/c nude mice were dissected to prepare cubes, about 2 mm³ each. These cubes were transplanted subaxillarily into separate BALB/c nude mice using a transplantation needle. The animals were divided into groups of 10 individuals on day 10 after transplantation and the body weight and the diameter of the implant were serially determined. As the compound of this invention, irsogladine maleate, 10 mg/kg, was suspended in 0.5% methylcellulose solution and administered orally once daily beginning day 14 after transplantation. Cyclophosphamide, 150 mg/kg, was dissolved in PBS and administered intraperitoneally once on day 14 after transplantation. The control group received 0.5% methylcellulose solution orally once daily beginning day 14 after transplantation.
The volume of the implant on day 18 after transplantation was divided by the volume at trans plantation. […]
The effect of the compound of this invention as an anticancer agent is clear.

`Nc1nc(N)nc(-c2cc(Cl)ccc2Cl)n1` [irsogladine maleate] was tested, and the “disappearance of tumor by palpation or diagnostic imaging” value (cancer patients [1]; 11 cases of breast cancer, 4 weeks after initiation, 2 mg/day x 2 orally with radiotherapy and chemotherapy) was “disappearance of tumor was confirmed”, the “disappearance of tumor by palpation or diagnostic imaging” value (cancer patients [1]; 13 cases of pharyngeal cancer and cancer of upper esophagus, 4 weeks after initiation, 2 mg/day x 2 orally with radiotherapy and chemotherapy) was “disappearance of tumor was confirmed” and the “cases with disappearance of tumor confirmed by palpation or diagnostic imaging” value (cancer patients [1]; all 45 cases of Test Example 7) was 45 cases. For the same molecule, the “disappearance of tumor by palpation or diagnostic imaging” value (cancer patients [1]; five cases of rectal cancer, 4 weeks after initiation, 2 mg/day x 2 orally with radiotherapy and chemotherapy) was “disappearance of tumor was confirmed”, the “disappearance of tumor by palpation or diagnostic imaging” value (cancer patients [1]; nine cases of maxillary cancer and epipharyngeal cancer, 4 weeks after initiation, 2 mg/day x 2 orally with radiotherapy, bleomycin, carmofur, doxifluridine, tegafur) was “disappearance of tumor was confirmed” and the “cases with disappearance of tumor histologically verified by biopsy” value (cancer patients [1]; of the 45 cases of Test Example 7) was 14 cases. The “disappearance of tumor by diagnostic imaging” value (cancer patients [1]; one case of stomach cancer, 4 weeks after initiation, 2 mg/day x 2 orally with radiotherapy and chemotherapy) was “disappearance of tumor was confirmed”, the “disappearance of tumor by palpation or diagnostic imaging” value (cancer patients [1]; six cases of bladder cancer, renal cancer, ovarian cancer, etc., 4 weeks after initiation, 2 mg/day x 2 orally with radiotherapy and chemotherapy) was “disappearance of tumor was confirmed” and the “tumor volume (effect versus 5-FU)” value (Meth A fibrosarcoma; Test (1): start tumor volume 70-100 mm³, irsogladine maleate 10 mg/kg orally once daily, comparator 5-fluorouracil 15 mg/kg orally, Fig. 1) was “effect comparable to that of 5-FU, 15 mg/kg”. The “tumor-inhibitory effect, single drug” value (Meth A fibrosarcoma; Test (2): start tumor volume 160-180 mm³, irsogladine maleate 10 mg/kg or 5-fluorouracil 30 mg/kg orally, Fig. 2) was “tumor-inhibitory effect”, the “tumor-inhibitory effect, combination therapy” value (Meth A fibrosarcoma; Test (2): start tumor volume 160-180 mm³, irsogladine maleate 10 mg/kg plus 5-fluorouracil 30 mg/kg orally, Fig. 2) was “more remarkable” and the clinical outcome (cancer patients [2]; (1) case (1): person, SCC of the pharynx metastasized to the right neck, about 15 days, with irradiation and chemotherapy) was “complete resoltuion of the tumor”. The clinical outcome (cancer patients [2]; (1) case (2): person, SCC of the pharynx metastasized to the left neck, with radiotherapy and chemotherapy) was “complete resolution of the tumor”, the clinical outcome (cancer patients [2]; (1) case (3): person, pharyngeal cancer with lymph node and lung metastasis, with radiotherapy and chemotherapy) was “complete resolution of the tumor” and the clinical outcome (cancer patients [2]; (1) case (4): person, SCC of the anterior association of the vocal cord, pharyngeal cancer, with radiotherapy and chemotherapy) was “complete resolution of the tumor”. For the same molecule, the clinical outcome (cancer patients [2]; (1) case (5): person, SCC of the pharynx, metastasis to the mediastinum, with radiotherapy and chemotherapy) was “complete resolution of the tumor”, the clinical outcome (cancer patients [2]; (1) case (6): person, tumor in the anterior association of the vocal cord, with radiotherapy and chemotherapy) was “partial resolution of the tumor” and the clinical outcome (cancer patients [2]; (1) case (7): person, SCC of the pharynx, with radiotherapy and chemotherapy) was “complete resolution of the tumor”. For the same molecule, the clinical outcome (cancer patients [2]; (2) case (1): person, TCC of the ureter, after resection, with radiotherapy and chemotherapy) was “complete resolution of the tumor”, the clinical outcome (cancer patients [2]; (2) case (2): person, TCC of the ureter, relapsed, with radiotherapy and chemotherapy) was “partial resolution of the tumor” and the clinical outcome (cancer patients [2]; (3) case (1): person, SCC of the tongue, metastasis to the left neck, with radiotherapy and chemotherapy) was “complete resolution of the tumor”. For the same molecule, the clinical outcome (cancer patients [2]; (3) case (2): person, SCC of the tongue with metastasis to the left neck, with radiotherapy and chemotherapy) was “complete resolution of the tumor”, the clinical outcome (cancer patients [2]; (4) case (1): person, recurrent breast cancer with bone metastasis, with radiotherapy and chemotherapy) was “died of injury of cervical vertebra and paraplegia” and the clinical outcome (cancer patients [2]; (4) case (2): person, recurrent breast cancer, invasive duct carcinoma, with radiotherapy and chemotherapy) was “complete resolution of the tumor”. For the same molecule, the clinical outcome (cancer patients [2]; (5) case (1): person, breast cancer (first on-set), 3 months, with radiotherapy, chemotherapy and resection) was “complete resolution of the tumor”, the clinical outcome (cancer patients [2]; (6) case (1): person, SCC of the epipharynx, metastases to lung and lumbar vertebra, with radiotherapy and chemotherapy) was “partial resolution of the tumor” and the clinical outcome (cancer patients [2]; (6) case (2): person, SCC of epipharynx with metastasis to the right neck, with radiotherapy and chemotherapy) was “complete resolution of the tumor”. The clinical outcome (cancer patients [2]; (6) case (3): person, pulmonary metastasis from epipharynx SCC, with radiotherapy and chemotherapy, patient later died after mixed infection) was “tumor disappeared”, the clinical outcome (cancer patients [2]; (6) case (4): person, maxillary/epipharyngeal cancer group, with irradiation and chemotherapy) was “partially resolved” and the clinical outcome (cancer patients [2]; (7) case (1): person, tumor of the right anterior ear, SCC of parotid gland, with radiation therapy and chemotherapeutic agents) was “tumor disappeared”. For the same molecule, the clinical outcome (cancer patients [2]; (7) case (2): person, SCC of the right external auditory canal, with radiotherapy, chemotherapy and resection) was “complete resolution”, the clinical outcome (cancer patients [2]; (7) case (3): person, SCC relapsed in the left anterior ear, with radiotherapy, chemotherapy and resection) was “completely disappeared” and the clinical outcome (cancer patients [2]; (8) case (1): person, metastatic lung cancer, primary rectal cancer, dotted shadow of right lower lung field, with radiotherapy and chemotherapy) was “reduced to 1/4”. For the same molecule, the clinical outcome (cancer patients [2]; (8) case (2): person, metastatic lung cancer, primary hypopharynx cancer, with radiotherapy and chemotherapy) was “disappeared completely”, the clinical outcome (cancer patients [2]; (8) case (3): person, metastatic lung cancer, primary esophageal cancer (upper), with radiotherapy and chemotherapy) was “disappeared completely” and the clinical outcome (cancer patients [2]; (8) case (4): person, primary pharyngeal cancer, metastases to hili of the lung, with radiotherapy and chemotherapy) was “the enlargement of the pharynx and of the hili of the lung disappeared”. For the same molecule, the clinical outcome (cancer patients [2]; (8) case (5): person, primary pancreatic carcinoma, pulmonary metastasis, with radiotherapy and chemotherapy) was “disappeared completely”, the clinical outcome (cancer patients [2]; (8) case (6): person, primary colon cancer, pulmonary metastasis, with radiotherapy and chemotherapy) was “Partial resolution” and the clinical outcome (cancer patients [2]; (9) case (1): person, recurrent ovarian cancer, with chemotherapeutic agents) was “remained unchanged”. For the same molecule, the clinical outcome (cancer patients [2]; (9) case (2): person, ovarian cancer, metastases to Virchow's nodes, abdominal tumor, with radiotherapy and chemotherapy) was “disappeared completely”, the clinical outcome (cancer patients [2]; (9) case (3): person, uterine cancer, SCC, with radiation therapy (40 Gy) and chemotherapy) was “partial resolution of the tumor” and the clinical outcome (cancer patients [2]; (9) case (4): person, stomach cancer with ascites, after resection, with irradiation and chemotherapy) was “died of DIC”. The clinical outcome (cancer patients [2]; (10) case (1): person, colorectal cancer, tubular ADC, with radiotherapy and chemotherapy) was “died of mixed infection”, the clinical outcome (cancer patients [2]; (10) case (2): person, colorectal cancer with pulmonary and nodal metastasis, ascites, with radiotherapy and chemotherapy) was “ascites were reduced and the patient became ambulant” and the clinical outcome (cancer patients [2]; (10) case (3): person, tumor of the right hypogastrium, CK and ADC, with radiotherapy and chemotherapy) was “ascites were removed”. For the same molecule, the clinical outcome (cancer patients [2]; (11) case (1): person, liposarcoma of the left chest wall with metastasis to the right mediastinum, with radiotherapy and chemotherapy) was “Partial resolution”, the clinical outcome (cancer patients [2]; (11) case (2): person, pelvic chondrosarcoma, treatment from November 1990 with radiotherapy and chemotherapy) was “living as of February 1991” and the clinical outcome (cancer patients [2]; (11) case (3): person, chondrosarcoma of the right leg, pulmonary metastasis, with radiotherapy and chemotherapy) was “Pain was relieved”. The clinical outcome (cancer patients [2]; (11) case (4): person, malignant lymphoma, tumor 4 x 4 cm at start, with radiotherapy and chemotherapy) was “Complete resolution”, the clinical outcome (cancer patients [2]; (11) case (5): person, malignant multiple schwannoma vertebrae, with radiotherapy and chemotherapy) was “paralysis of limbs was found” and the patients who died (cancer patients [2]; of the 39 patients of Test Example 8) was “four”. For the same molecule, the “complete or partial resolution, overall” value (cancer patients [2]; summary of the 39 patients of Test Example 8) was “no patients in whom complete or partial resolution was not obtained” and the Tumor volume ratio [3] was 1.52 ± 0.08.
